Legend:
Assay type in all cases: in vivo
[1] = system: velvetleaf (Abutilon theophrasti); experiment: Test G Post-Emergence Protocol; conditions: Abutilon theophrasti, post-emergence, 312 h; for pest or weed control at 15.625 g/ha: 15.625 g ai/ha, evaluated after 13 days (100=total damage to plant; 0=no damage to plant), read-out: Velvetleaf damage rating; for pest or weed control at 62.5 g/ha: 62.5 g ai/ha, read-out: Velvetleaf damage rating (100=total damage to plant; 0=no damage to plant); for pest or weed control at 62.5 g/ha / pest or weed control at 250 g/ha: evaluated after 13 days; for pest or weed control at 250 g/ha: 250 g ai/ha, read-out: damage to plant, Velvetleaf (100=total damage to plant; 0=no damage to plant)
Outline: (§1)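 A glasshouse post-emergence test: 8-day-old plants sprayed at 15.625, 62.5 or 250 g/ha, then grown at 24/16 °C day/night with 14 h light and 65% humidity. Damage rated 13 days later, 0–100.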

[2] = system: giant foxtail (Setaria faberi); experiment: Test G Post-Emergence Protocol; conditions: Setaria faberi, post-emergence, 312 h; for pest or weed control at 15.625 g/ha: 15.625 g ai/ha, evaluated after 13 days (100=total damage to plant; 0=no damage to plant), read-out: Foxtail, Giant damage rating; for pest or weed control at 62.5 g/ha: 62.5 g ai/ha, read-out: Foxtail, Giant damage rating (100=total damage to plant; 0=no damage to plant); for pest or weed control at 62.5 g/ha / pest or weed control at 250 g/ha: evaluated after 13 days; for pest or weed control at 250 g/ha: 250 g ai/ha, read-out: damage to plant, Foxtail, Giant (100=total damage to plant; 0=no damage to plant)
Outline: as §1

[3] = system: redroot pigweed (Amaranthus retroflexus); experiment: Test G Post-Emergence Protocol; conditions: Amaranthus retroflexus, post-emergence, 312 h; for pest or weed control at 15.625 g/ha: 15.625 g ai/ha, evaluated after 13 days (100=total damage to plant; 0=no damage to plant), read-out: Pigweed, Redroot damage rating; for pest or weed control at 62.5 g/ha: 62.5 g ai/ha, read-out: Pigweed, Redroot damage rating (100=total damage to plant; 0=no damage to plant); for pest or weed control at 62.5 g/ha / pest or weed control at 250 g/ha: evaluated after 13 days; for pest or weed control at 250 g/ha: 250 g ai/ha, read-out: damage to plant, Pigweed, Redroot (100=total damage to plant; 0=no damage to plant)
Outline: as §1

[4] = system: ivy-leaved morning glory (Ipomoea hederacea); experiment: Test G Post-Emergence Protocol; conditions: Ipomoea, post-emergence, 312 h; for pest or weed control at 15.625 g/ha: 15.625 g ai/ha, evaluated after 13 days (100=total damage to plant; 0=no damage to plant), read-out: Morningglory, Ivy-leaved damage rating; for pest or weed control at 62.5 g/ha: 62.5 g ai/ha, read-out: Morningglory, Ivy-leaved damage rating (100=total damage to plant; 0=no damage to plant); for pest or weed control at 62.5 g/ha / pest or weed control at 250 g/ha: evaluated after 13 days; for pest or weed control at 250 g/ha: 250 g ai/ha, read-out: damage to plant, Morningglory, Ivy-leaved (100=total damage to plant; 0=no damage to plant)
Outline: as §1

corn (Zea mays) [5] = experiment: Test G Post-Emergence Protocol; conditions: Zea mays, post-emergence, 312 h; for plant injury at 15.625 g/ha: 15.625 g ai/ha, evaluated after 13 days (100=total damage to plant; 0=no damage to plant), read-out: Corn damage rating; for plant injury at 62.5 g/ha: 62.5 g ai/ha, read-out: Corn damage rating (100=total damage to plant; 0=no damage to plant); for plant injury at 62.5 g/ha / plant injury at 250 g/ha: evaluated after 13 days; for plant injury at 250 g/ha: 250 g ai/ha, read-out: damage to plant, Corn (100=total damage to plant; 0=no damage to plant)
Outline: as §1

[6] = system: barnyardgrass (Echinochloa crus-galli); experiment: Test G Post-Emergence Protocol; conditions: Echinochloa crus-galli, post-emergence, 312 h; for pest or weed control at 15.625 g/ha: 15.625 g ai/ha, evaluated after 13 days (100=total damage to plant; 0=no damage to plant), read-out: Barnyardgrass damage rating; for pest or weed control at 62.5 g/ha: 62.5 g ai/ha, read-out: Barnyardgrass damage rating (100=total damage to plant; 0=no damage to plant); for pest or weed control at 62.5 g/ha / pest or weed control at 250 g/ha: evaluated after 13 days; for pest or weed control at 250 g/ha: 250 g ai/ha, read-out: damage to plant, Barnyardgrass (100=total damage to plant; 0=no damage to plant)
Outline: as §1

[7] = system: velvetleaf (Abutilon theophrasti); experiment: Test G Pre-Emergence Protocol; conditions: Abutilon theophrasti, pre-emergence, 312 h, evaluated after 13 days; for pest or weed control at 15.625 g/ha: 15.625 g ai/ha; for pest or weed control at 15.625 g/ha / pest or weed control at 250 g/ha: read-out: Velvetleaf damage rating (100=total damage to plant; 0=no damage to plant); for pest or weed control at 62.5 g/ha: 62.5 g ai/ha, 100=total damage to plant, 0=no damage to plant, read-out: plant damage rating, Velvetleaf; for pest or weed control at 250 g/ha: 250 g ai/ha
Outline: (§2)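 Pots of seeds in standard soil were grown for one day in a glasshouse (24/16 °C day/night, 14 h light, 65% humidity), then sprayed with compound in acetone/water 50:50 with 0.5% Tween 20 at 15.625, 62.5 or 250 g/ha. Damage was scored after 13 days on a 0 (none) to 100 (total) scale.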

[8] = system: giant foxtail (Setaria faberi); experiment: Test G Pre-Emergence Protocol; conditions: Setaria faberi, pre-emergence, 312 h, evaluated after 13 days; for pest or weed control at 15.625 g/ha: 15.625 g ai/ha; for pest or weed control at 15.625 g/ha / pest or weed control at 250 g/ha: read-out: Foxtail, Giant damage rating (100=total damage to plant; 0=no damage to plant); for pest or weed control at 62.5 g/ha: 62.5 g ai/ha, 100=total damage to plant, 0=no damage to plant, read-out: plant damage rating, Foxtail, Giant; for pest or weed control at 250 g/ha: 250 g ai/ha
Outline: as §2

[9] = system: redroot pigweed (Amaranthus retroflexus); experiment: Test G Pre-Emergence Protocol; conditions: Amaranthus retroflexus, pre-emergence, 312 h, evaluated after 13 days; for pest or weed control at 15.625 g/ha: 15.625 g ai/ha; for pest or weed control at 15.625 g/ha / pest or weed control at 250 g/ha: read-out: Pigweed, Redroot damage rating (100=total damage to plant; 0=no damage to plant); for pest or weed control at 62.5 g/ha: 62.5 g ai/ha, 100=total damage to plant, 0=no damage to plant, read-out: plant damage rating, Pigweed, Redroot; for pest or weed control at 250 g/ha: 250 g ai/ha
Outline: as §2

[10] = system: ivy-leaved morning glory (Ipomoea hederacea); experiment: Test G Pre-Emergence Protocol; conditions: Ipomoea, pre-emergence, 312 h, evaluated after 13 days; for pest or weed control at 15.625 g/ha: 15.625 g ai/ha, read-out: Morning-glory, Ivy-leaved damage rating (100=total damage to plant; 0=no damage to plant); for pest or weed control at 62.5 g/ha: 62.5 g ai/ha, 100=total damage to plant, 0=no damage to plant, read-out: plant damage rating, Morningglory, Ivy-leaved; for pest or weed control at 250 g/ha: 250 g ai/ha, read-out: Morningglory, Ivy-leaved damage rating (100=total damage to plant; 0=no damage to plant)
Outline: as §2

corn (Zea mays) [11] = experiment: Test G Pre-Emergence Protocol; conditions: Zea mays, pre-emergence, 312 h, evaluated after 13 days; for plant injury at 15.625 g/ha: 15.625 g ai/ha; for plant injury at 15.625 g/ha / plant injury at 250 g/ha: read-out: Corn damage rating (100=total damage to plant; 0=no damage to plant); for plant injury at 62.5 g/ha: 62.5 g ai/ha, 100=total damage to plant, 0=no damage to plant, read-out: plant damage rating, Corn; for plant injury at 250 g/ha: 250 g ai/ha
Outline: as §2

[12] = system: barnyardgrass (Echinochloa crus-galli); experiment: Test G Pre-Emergence Protocol; conditions: Echinochloa crus-galli, pre-emergence, 312 h, evaluated after 13 days; for pest or weed control at 15.625 g/ha: 15.625 g ai/ha, read-out: Barnyard grass damage rating (100=total damage to plant; 0=no damage to plant); for pest or weed control at 62.5 g/ha: 62.5 g ai/ha, 100=total damage to plant, 0=no damage to plant, read-out: plant damage rating, Barnyardgrass; for pest or weed control at 250 g/ha: 250 g ai/ha, read-out: Barnyardgrass damage rating (100=total damage to plant; 0=no damage to plant)
Outline: as §2

Row | SMILES | pest or weed control at 15.625 g/ha [1] | pest or weed control at 62.5 g/ha [1] | pest or weed control at 250 g/ha [1] | pest or weed control at 15.625 g/ha [2] | pest or weed control at 62.5 g/ha [2] | pest or weed control at 250 g/ha [2] | pest or weed control at 15.625 g/ha [3] | pest or weed control at 62.5 g/ha [3] | pest or weed control at 250 g/ha [3] | pest or weed control at 15.625 g/ha [4] | pest or weed control at 62.5 g/ha [4] | pest or weed control at 250 g/ha [4] | plant injury at 15.625 g/ha (corn (Zea mays) [5]) | plant injury at 62.5 g/ha (corn (Zea mays) [5]) | plant injury at 250 g/ha (corn (Zea mays) [5]) | pest or weed control at 15.625 g/ha [6] | pest or weed control at 62.5 g/ha [6] | pest or weed control at 250 g/ha [6] | pest or weed control at 15.625 g/ha [7] | pest or weed control at 62.5 g/ha [7] | further results
1 | CN1C[C@@H](c2cc(Cl)nc(C(F)(F)F)c2)[C@H](C(=O)Nc2cccc(F)c2F)C1=O (racemic) [Compound 1485] | 0% | 10% | 20% | 60% | 70% | 70% | 0% | 20% | 40% | 0% | 0% | 20% | 40% | 70% | 80% | 50% | 70% | 70% | 0% | 0% | pest or weed control at 250 g/ha [7]: 30%; pest or weed control at 15.625 g/ha [8]: 60%; pest or weed control at 62.5 g/ha [8]: 90%; pest or weed control at 250 g/ha [8]: 90%; pest or weed control at 15.625 g/ha [9]: 0%; pest or weed control at 62.5 g/ha [9]: 30%; pest or weed control at 250 g/ha [9]: 60%; pest or weed control at 15.625 g/ha [10]: 0%; pest or weed control at 62.5 g/ha [10]: 0%; pest or weed control at 250 g/ha [10]: 0%; plant injury at 15.625 g/ha (corn (Zea mays) [11]): 40%; plant injury at 62.5 g/ha (corn (Zea mays) [11]): 70%; plant injury at 250 g/ha (corn (Zea mays) [11]): 80%; pest or weed control at 15.625 g/ha [12]: 60%; pest or weed control at 62.5 g/ha [12]: 90%; pest or weed control at 250 g/ha [12]: 90%
2 | Cc1cnc(NC(=O)[C@@H]2C(=O)N(C)C[C@H]2c2ccc(C(F)(F)F)cc2)s1 (racemic) [Compound 1570] | 0% | 0% | 0% | 0% | 0% | 20% | 0% | 0% | 0% | 0% | 0% | 10% | 0% | 0% | 0% | 0% | 0% | 10% | 0% | 0% | pest or weed control at 250 g/ha [7]: 0%; pest or weed control at 15.625 g/ha [8]: 0%; pest or weed control at 62.5 g/ha [8]: 0%; pest or weed control at 250 g/ha [8]: 0%; pest or weed control at 15.625 g/ha [9]: 0%; pest or weed control at 62.5 g/ha [9]: 0%; pest or weed control at 250 g/ha [9]: 0%; pest or weed control at 15.625 g/ha [10]: 0%; pest or weed control at 62.5 g/ha [10]: 0%; pest or weed control at 250 g/ha [10]: 0%; plant injury at 15.625 g/ha (corn (Zea mays) [11]): 0%; plant injury at 62.5 g/ha (corn (Zea mays) [11]): 0%; plant injury at 250 g/ha (corn (Zea mays) [11]): 0%; pest or weed control at 15.625 g/ha [12]: 0%; pest or weed control at 62.5 g/ha [12]: 0%; pest or weed control at 250 g/ha [12]: 0%
3 | CN1C[C@H](c2ccc(C(F)(F)F)cc2)[C@](C)(C(=O)Nc2cccc(F)c2F)C1=O (racemic) [Compound 1406] | 0% | 20% | 20% | 0% | 0% | 0% | 0% | 40% | 20% | 0% | 10% | 0% | 20% | 0% | 10% | 0% | 0% | 20% | 0% | 0% | pest or weed control at 250 g/ha [7]: 0%; pest or weed control at 15.625 g/ha [8]: 0%; pest or weed control at 62.5 g/ha [8]: 0%; pest or weed control at 250 g/ha [8]: 0%; pest or weed control at 15.625 g/ha [9]: 0%; pest or weed control at 62.5 g/ha [9]: 0%; pest or weed control at 250 g/ha [9]: 0%; pest or weed control at 15.625 g/ha [10]: 0%; pest or weed control at 62.5 g/ha [10]: 0%; pest or weed control at 250 g/ha [10]: 0%; plant injury at 15.625 g/ha (corn (Zea mays) [11]): 0%; plant injury at 62.5 g/ha (corn (Zea mays) [11]): 0%; plant injury at 250 g/ha (corn (Zea mays) [11]): 0%; pest or weed control at 15.625 g/ha [12]: 0%; pest or weed control at 62.5 g/ha [12]: 0%; pest or weed control at 250 g/ha [12]: 0%

— patent US12077503B2, “Substituted cyclic amides and their use as herbicides” (FMC CORPORATION, priority 2015, dated 2024)
